Among the data in patent publication US9199963B2, “Heterocyclic compound” (Takeda Pharmaceutical Company Limited, priority 2013, dated 2015) are inhibition values, retold here.

Usually inhibition stands for the percentage by which the read-out fell short of the control.

Each structure is given as a SMILES string.

One experiment concerns the target T1, human MCHR1 (Homo sapiens, UniProt Q99705).
T1 construct: expressed in transfected cells; host or cells: CHO dhfr- cells, clone #4
The experiment is described as follows: MCH receptor 1 antagonistic activity using Ca2+ mobilization assay. The following applies: test compound 0.1 μM; ligand MCH (4-19) 2 nM; human MCHR1-expressing CHO cells (clone #4); read-out: Inhibition rate % (0.1 μM). Type of experiment: cell-based. The protocol:
Measurement of MCH Receptor 1 Antagonistic Activity of Test Compound Using Ca^2+ Mobilization Assay
Using an expression vector plasmid introduced with human MCHR1 gene for expression in animal cells, human MCHR1 gene was introduced into CHO cells (CHO dhfr^−) by Lipofectamine LTX (Invitrogen). The cells were cultured in selection MEMα medium [445 mL of MEMα medium without nucleic acid and added with 5 mL of Penicillin-Streptomycin (Invitrogen) and 50 mL of dialyzed fetal bovine serum]. Colony 24 clones grown in the selection medium, which were human MCHR1 gene-expressing CHO cell candidates, were selected. […] An integrated dispensing function fluorometer (CellLux, PerkinElmer) was used for Ca^2+ mobilization assay. […] The medium was removed, and the cells were washed with phosphate buffered saline (PBS). A Ca^2+ indicator dye reagent (DOJINDO LABORATORIES, Ca screening no-wash kit Fluo4) was added at 100 μL/well, and the dye was allowed to penetrate into the cells for 30 min in an incubator at 5% CO2, 37° C. The plate was set on a plate reader. First, a test compound solution diluted with an assay buffer [10 mM HEPES (pH 7.4), 1× assay buffer containing 0.1% BSA (DOJINDO LABORATORIES, attached to Ca screening no-wash kit Fluo4)] or DMSO solution was added at 50 μL/well, and then ligand MCH (4-19) peptide (final concentration 2 nM) diluted with assay buffer or DMSO was added at 50 μL/well, during which changes in intracellular fluorescence were measured at 2 second intervals.
In general terms: A change in cytosolic calcium serves as a functional read-out for many receptors and channels.

Experiment [1] deals with T2, human MCH receptor 1 (MCHR1) (Homo sapiens, UniProt Q99705).
T2 construct: expressed in transfected cells; host or cells: CHO cell clone 57 (described in WO01/82925); membrane fraction
T2 sequence (Q99705 whole entry): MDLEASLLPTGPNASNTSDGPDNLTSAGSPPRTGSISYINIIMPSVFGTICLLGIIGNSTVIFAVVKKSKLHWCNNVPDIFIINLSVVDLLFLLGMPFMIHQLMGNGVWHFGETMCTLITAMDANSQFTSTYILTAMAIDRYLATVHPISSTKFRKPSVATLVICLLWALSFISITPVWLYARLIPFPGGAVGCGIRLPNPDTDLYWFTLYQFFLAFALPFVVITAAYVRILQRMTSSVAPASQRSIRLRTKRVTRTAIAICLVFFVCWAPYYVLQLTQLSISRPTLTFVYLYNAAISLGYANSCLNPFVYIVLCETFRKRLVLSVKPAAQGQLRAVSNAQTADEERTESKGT
Nature of the experiment: Human MCH receptor 1 (MCHR1) competitive inhibitory activity using binding assay. The following applies: test compound 0.1 μM; [125I]-MCH (4-19); human MCHR1-expressing CHO cellular membrane fraction; read-out: Binding inhibition rate % (0.1 μM). Here is the method:
Determination of Human MCH Receptor 1 (MCHR1) Competitive Inhibitory Activity of Test Compound Using Binding Assay
1. Preparation of Membrane Fraction
In phosphate buffered saline (pH 7.4) supplemented with 5 mM EDTA (ethylenediaminetetraacetic acid) were respectively suspended human MCHR1-expressing CHO cells (1×10^8 cells) and centrifuged. Homogenate buffer (10 mL, 10 mM NaHCO3, 5 mM EDTA, pH 7.5, 0.5 mM PMSF (phenylmethylsulfonyl fluoride), 20 mg/L leupeptin, 4 mg/L E-64, 1 mg/L pepstatin A) was added to the pellets of the cells and, using Polytron Homogenizer, the mixture was homogenated. The supernatant obtained after centrifugation at 400×g for 10 min was further centrifuged at 100,000×g for 1 hr to give precipitate of the membrane fraction. The precipitate was suspended in 2 mL of assay buffer [20 mM Tris-HCl (pH 7.5), 5 mM EDTA, 0.5 mM PMSF, 20 mg/L leupeptin, 4 mg/L E-64, 1 mg/L pepstatin A]. The membrane fractions were suspended in assay buffer to a protein concentration of 2 mg/mL, and after dispensing, preserved at −80° C. and used upon thawing each time when in use.
The MCHR1 ligand binding inhibitory activity of the test compound was determined as follows.
The mixture was reacted with stirring at room temperature for 1 hr, and the plate was set on FilterMate Harvester (PerkinElmer). […] The glass filter plate was dried, MicroScint 0 (PerkinElmer) was added at 25 μL/well, and the resulting radioactivity was measured by TopCount liquid scintillation counter (PerkinElmer). The binding inhibition rate of the test compound was calculated by the following formula. Binding inhibition(%)=100−(radioactivity upon addition of test compound and hot MCH−radioactivity upon addition of cold MCH and hot MCH solution)/(radioactivity upon addition of DMSO solution and hot MCH−radioactivity upon addition of cold MCH and hot MCH solution)×100

T1 sequence (Q99705 whole entry): as above

In the case of `Cc1c2cc(-n3ccc(OCc4cc5ccccc5o4)cc3=O)ccc2nn1C` [Example 16, 4-(1-benzofuran-2-ylmethoxy)-1-(2,3-dimethyl-2H-indazol-5-yl)pyridin-2(1H)-one], the inhibition at 0.1 µM is 57% at human MCHR1 and 47% in experiment [1]. Turning to `Cc1c2cc(-n3ccc(OCc4ccc(Cl)s4)cc3=O)ccc2nn1C1CC1` [Example 8, 4-[(5-chlorothiophen-2-yl)methoxy]-1-(2-cyclopropyl-3-methyl-2H-indazol-5-yl)pyridin-2(1H)-one], the inhibition at 0.1 µM at human MCHR1 is 55%; in experiment [1] it was 68%. In the case of `Cc1c2cc(-n3ccc(OCc4nc(C(F)(F)F)cs4)cc3=O)ccc2nn1C` [Example 38, 1-(2,3-dimethyl-2H-indazol-5-yl)-4-{[4-(trifluoromethyl)-1,3-thiazol-2-yl]methoxy}pyridin-2(1H)-one], the inhibition at 0.1 µM on human MCHR1 amounted to 78%; in experiment [1] it was 45%. `CCn1nc2ccc(-n3ccc(OCc4ccc(Cl)cc4)cc3=O)cc2c1C` [Example 2, 4-[(4-chlorobenzyl)oxy]-1-(2-ethyl-3-methyl-2H-indazol-5-yl)pyridin-2(1H)-one]: the inhibition at 0.1 µM on human MCHR1 was 73%; in experiment [1] it was 43%. As for `Cc1c2cc(-n3ccc(OCc4csc(C(F)(F)F)n4)cc3=O)ccc2nn1C` [Example 39, 1-(2,3-dimethyl-2H-indazol-5-yl)-4-{[2-(trifluoromethyl)-1,3-thiazol-4-yl]methoxy}pyridin-2(1H)-one], the figures for the inhibition at 0.1 µM (at human MCHR1; in experiment [1]) were 71% and 33%, respectively. `Cc1c2cc(-n3ccc(OCc4cc(C(F)(F)F)cs4)cc3=O)ccc2nn1C` [Example 41, 1-(2,3-dimethyl-2H-indazol-5-yl)-4-{[4-(trifluoromethyl)thiophen-2-yl]methoxy}pyridin-2(1H)-one]: the values for the inhibition at 0.1 µM (at human MCHR1; in experiment [1]) were 70% and 55%, respectively. As to `CCCn1nc2ccc(-n3ccc(OCc4ccc(Cl)cc4)cc3=O)cc2c1C` [Example 3, 4-[(4-chlorobenzyl)oxy]-1-(3-methyl-2-propyl-2H-indazol-5-yl)pyridin-2(1H)-one], the inhibition at 0.1 µM in experiment [1] amounted to 37%.

Regarding `CCn1nc2ccc(-n3ccc(OCc4nc(C(F)(F)F)cs4)cc3=O)cc2c1C` [Example 36, 1-(2-ethyl-3-methyl-2H-indazol-5-yl)-4-{[4-(trifluoromethyl)-1,3-thiazol-2-yl]methoxy}pyridin-2(1H)-one], the inhibition at 0.1 µM at human MCHR1 is 83%; in experiment [1], 37%.

On to `Cc1c2cc(-n3ccc(OCc4ccc(Br)cn4)cc3=O)ccc2nn1C1CC1` [Example 28, 4-[(5-bromopyridin-2-yl)methoxy]-1-(2-cyclopropyl-3-methyl-2H-indazol-5-yl)pyridin-2(1H)-one], for which the inhibition at 0.1 µM at human MCHR1 turned out to be 93%; in experiment [1] it was 68%. Consider `Cc1c2cc(-n3ccc(OCc4ccccc4)cc3=O)ccc2nn1C` [Example 9, 4-(benzyloxy)-1-(2,3-dimethyl-2H-indazol-5-yl)pyridin-2(1H)-one], for which the inhibition at 0.1 µM in experiment [1] was found to be 36%.

On to `Cc1c2cc(-n3ccc(OCc4ccc(Cl)cn4)cc3=O)ccc2nn1C1CC1` [Example 18, 4-[(5-chloropyridin-2-yl)methoxy]-1-(2-cyclopropyl-3-methyl-2H-indazol-5-yl)pyridin-2(1H)-one], for which the inhibition at 0.1 µM on human MCHR1 came to 63%; in experiment [1] it was 45%. For the compound `Cc1c2c(F)c(-n3ccc(OCc4ccc(Cl)cc4)cc3=O)ccc2nn1C` [Example 32, 4-[(4-chlorobenzyl)oxy]-1-(4-fluoro-2,3-dimethyl-2H-indazol-5-yl)pyridin-2(1H)-one], the inhibition at 0.1 µM in experiment [1] came to 54%. Consider `Cc1c2cc(-n3ccc(OCc4ccc(F)cc4)cc3=O)ccc2nn1C` [Example 42, 1-(2,3-dimethyl-2H-indazol-5-yl)-4-[(4-fluorobenzyl)oxy]pyridin-2(1H)-one], for which the results for the inhibition at 0.1 µM (at human MCHR1; in experiment [1]) were 65% and 46%, respectively. Turning to `Cc1c2cc(-n3ccc(OCc4ccc(Br)cn4)cc3=O)ccc2nn1C` [Example 23, 4-[(5-bromopyridin-2-yl)methoxy]-1-(2,3-dimethyl-2H-indazol-5-yl)pyridin-2(1H)-one], the inhibition at 0.1 µM at human MCHR1 amounted to 77%; in experiment [1], 57%.

Regarding `Cc1c2cc(-n3ccc(OCc4ccc(Br)s4)cc3=O)ccc2nn1C` [Example 27, 4-[(5-bromothiophen-2-yl)methoxy]-1-(2,3-dimethyl-2H-indazol-5-yl)pyridin-2(1H)-one], the inhibition at 0.1 µM on human MCHR1 was determined as 92%; in experiment [1] it was 60%. Take `Cc1c2cc(-n3ccc(OCc4nc(Br)cs4)cc3=O)ccc2nn1C` [Example 30, 4-[(4-bromo-1,3-thiazol-2-yl)methoxy]-1-(2,3-dimethyl-2H-indazol-5-yl)pyridin-2(1H)-one]: the values for the inhibition at 0.1 µM (on human MCHR1; in experiment [1]) were 89% and 34%, respectively. `Cc1c2cc(-n3ccc(OCc4ccc(C(F)(F)F)s4)cc3=O)ccc2nn1C` [Example 10, 1-(2,3-dimethyl-2H-indazol-5-yl)-4-{[5-(trifluoromethyl)thiophen-2-yl]methoxy}pyridin-2(1H)-one]: the figures for the inhibition at 0.1 µM (at human MCHR1; in experiment [1]) were 51% and 39%, respectively.

Consider `Cc1c2cc(-n3ccc(OCc4cccc(Cl)c4)cc3=O)ccc2nn1C` [Example 12, 4-[(3-chlorobenzyl)oxy]-1-(2,3-dimethyl-2H-indazol-5-yl)pyridin-2(1H)-one], for which the inhibition at 0.1 µM on human MCHR1 stood at 38%; in experiment [1], 42%. For `Cc1c2cc(-n3ccc(OCc4ccc(Cl)cc4)cc3=O)ccc2nn1C1CC1` [Example 5, 4-[(4-chlorobenzyl)oxy]-1-(2-cyclopropyl-3-methyl-2H-indazol-5-yl)pyridin-2(1H)-one], the inhibition at 0.1 µM at human MCHR1 was 86%; in experiment [1], 78%. Regarding `Cc1c2cc(-n3ccc(OCc4ccc(C(F)(F)F)s4)cc3=O)ccc2nn1C1CC1` [Example 45, 1-(2-cyclopropyl-3-methyl-2H-indazol-5-yl)-4-{[5-(trifluoromethyl)thiophen-2-yl]methoxy}pyridin-2(1H)-one], the results for the inhibition at 0.1 µM (on human MCHR1; in experiment [1]) were 43% and 49%, respectively. In the same order, the values of `Cc1c2cc(-n3ccc(OCc4cc(C(F)(F)F)cs4)cc3=O)ccc2nn1C1CC1` [Example 43, 1-(2-cyclopropyl-3-methyl-2H-indazol-5-yl)-4-{[4-(trifluoromethyl)thiophen-2-yl]methoxy}pyridin-2(1H)-one] are 72% and 71%. Consider `Cc1c2cc(-n3ccc(OCc4ccccc4)cc3=O)ccc2nn1C1CC1` [Example 7, 4-(benzyloxy)-1-(2-cyclopropyl-3-methyl-2H-indazol-5-yl)pyridin-2(1H)-one], for which the figures for the inhibition at 0.1 µM (on human MCHR1; in experiment [1]) were 66% and 44%, respectively. Consider `Cc1c2cc(-n3ccc(OCc4nc(C(F)(F)F)cs4)cc3=O)ccc2nn1C1CC1` [Example 33, 1-(2-cyclopropyl-3-methyl-2H-indazol-5-yl)-4-{[4-(trifluoromethyl)-1,3-thiazol-2-yl]methoxy}pyridin-2(1H)-one], for which the inhibition at 0.1 µM was 96% on human MCHR1 and 76% in experiment [1].
